Experimental data from patent US20260015339A1, “CALIX[4]ARENES WITH HIGH ANTICANCER ACTIVITY” (UNIVERSITE GRENOBLE ALPES, priority 2023, published 2026).

Legend:
Non-malignant MSC cells = assay: MTS cytotoxicity assay on MSC; assay type: cell-based; conditions: 72 hours of treatment
Experimental: After 72 hours of treatment, the cytotoxicity was measured by means of the IC50 value, using the kit “CellTiter 96R AQuous One Solution Cell Proliferation Assay (MTS)” from Promega™. Following 30 minutes of incubation with the MTS reagent, the endpoint measurements were done in triplicate at 485 nm, using a fluorescence plate reader.

DLD-1 = assay: PROLiFiler-Cell Panel Screening (CellTiterGlo); assay type: cell-based; conditions: Homo sapiens; Colon, DLD-1, 72 hours
Experimental: (§1) For the assays, cells were seeded in white cell culture-treated flat and clear bottom 384-well multiwall plates and incubated at 37° C. overnight before the calix[4]arene of the formula (2) or the reference compound were added. After incubation for 72 hours at 37° C. at 5% or 10% CO2 depending on the medium, cell plates were equilibrated to room temperature (i.e. 20° C.) for one hour, CellTiterGlo® reagent from the firm Promega was added and luminescence was measured approximately an hour later using a luminometer.
(§2) Raw data were converted into percent cell viability relative to the high and low control, which were set to 100% and 0%, respectively.

HT-1080 = assay: PROLiFiler-Cell Panel Screening (CellTiterGlo); assay type: cell-based; conditions: Homo sapiens; Fibrosarcoma, HT-1080, 72 hours
Experimental: as §1, §2

HCC 1569 = assay: PROLiFiler-Cell Panel Screening (CellTiterGlo); assay type: cell-based; conditions: Homo sapiens, HCC1569; Breast, HCC 1569, 72 hours
Experimental: as §1, §2

COV434 = assay: PROLiFiler-Cell Panel Screening (CellTiterGlo); assay type: cell-based; conditions: Ovary, COV434, 72 hours
Experimental: as §1, §2

NCI-H1573 = assay: PROLiFiler-Cell Panel Screening (CellTiterGlo); assay type: cell-based; conditions: Homo sapiens; Lung, NCI-H1573, 72 hours
Experimental: as §1, §2

SW948 = assay: PROLiFiler-Cell Panel Screening (CellTiterGlo); assay type: cell-based; conditions: Homo sapiens; Colon, SW948, 72 hours
Experimental: as §1, §2

Caki-1 = assay: PROLiFiler-Cell Panel Screening (CellTiterGlo); assay type: cell-based; conditions: Homo sapiens; Kidney, Caki-1, 72 hours
Experimental: as §1, §2

H1299 = assay: PROLiFiler-Cell Panel Screening (CellTiterGlo); assay type: cell-based; conditions: Homo sapiens, NCI-H1299; Lung, H1299, 72 hours
Experimental: as §1, §2

MOLM-13 = assay: PROLiFiler-Cell Panel Screening (CellTiterGlo); assay type: cell-based; conditions: Homo sapiens; Blood, MOLM-13, 72 hours
Experimental: as §1, §2

HuH7 = assay: PROLiFiler-Cell Panel Screening (CellTiterGlo); assay type: cell-based; conditions: Homo sapiens, Huh-7; Liver, HuH7, 72 hours
Experimental: as §1, §2

A549 = assay: PROLiFiler-Cell Panel Screening (CellTiterGlo); assay type: cell-based; conditions: Homo sapiens; Lung, A549, 72 hours
Experimental: as §1, §2

LnCap = assay: PROLiFiler-Cell Panel Screening (CellTiterGlo); assay type: cell-based; conditions: Homo sapiens, Prostate, 72 hours
Experimental: as §1, §2

BT-20 = assay: PROLiFiler-Cell Panel Screening (CellTiterGlo); assay type: cell-based; conditions: Homo sapiens; Breast, BT-20, 72 hours
Experimental: as §1, §2

SW-1783 = assay: PROLiFiler-Cell Panel Screening (CellTiterGlo); assay type: cell-based; conditions: Homo sapiens, SW1783; Brain, SW-1783, 72 hours
Experimental: as §1, §2

MDA-MB-468 = assay: PROLiFiler-Cell Panel Screening (CellTiterGlo); assay type: cell-based; conditions: Homo sapiens; Breast, MDA-MB-468, 72 hours
Experimental: as §1, §2

K562 = assay: PROLiFiler-Cell Panel Screening (CellTiterGlo); assay type: cell-based; conditions: Homo sapiens; Blood, K562, 72 hours
Experimental: as §1, §2

BEN = assay: PROLiFiler-Cell Panel Screening (CellTiterGlo); assay type: cell-based; conditions: Lung, 72 hours
Experimental: as §1, §2

A172 = assay: PROLiFiler-Cell Panel Screening (CellTiterGlo); assay type: cell-based; conditions: Homo sapiens, A 172; Brain, A172, 72 hours
Experimental: as §1, §2

HeLa = assay: PROLiFiler-Cell Panel Screening (CellTiterGlo); assay type: cell-based; conditions: Homo sapiens, Cervix, 72 hours
Experimental: as §1, §2

EFO-27 = assay: PROLiFiler-Cell Panel Screening (CellTiterGlo); assay type: cell-based; conditions: Homo sapiens; Ovary, EFO-27, 72 hours
Experimental: as §1, §2

HCT-15 = assay: PROLiFiler-Cell Panel Screening (CellTiterGlo); assay type: cell-based; conditions: Homo sapiens; Colon, HCT-15, 72 hours
Experimental: as §1, §2

JIMT-1 = assay: PROLiFiler-Cell Panel Screening (CellTiterGlo); assay type: cell-based; conditions: Homo sapiens; Breast, JIMT-1, 72 hours
Experimental: as §1, §2

H460 = assay: PROLiFiler-Cell Panel Screening (CellTiterGlo); assay type: cell-based; conditions: Homo sapiens, NCI-H460; Lung, H460, 72 hours
Experimental: as §1, §2

[1] = Cu^+ binding by 1H NMR titration; conditions: 1H NMR titration with Cu(MeCN)4BF4, CD3CN/CDCl3 4/1, 298 K
Experimental: Binding abilities and complexation constants of the examples of calix[4]arenes of the present invention and the comparative examples with Cu^+ were evaluated by ^1H NMR titrations at 298 K using copper(I)tetrakis(acetronitrile)tetrafluoroborate.
For example, for each separate calix[4]arene a stock solution of the tested calix[4]arene was prepared in a CD3CN/CDCl3, 4/1 mixture. Using this stock solution, a Cu(MeCN)4BF4 solution was prepared and added by steps of 0.25 equivalent of copper(I) up until 1 equivalent and then by steps of 0.5 equivalent until a total of at least 2 equivalents. ^1H NMR spectra were recorded at a 400 MHz spectrometer at 298 K for the stock solutions of the calix[4]arenes and after each addition of Cu(MeCN)4BF4.
Calix[4]arenes for which a gradual change of the chemical shifts of the ^1H NMR signals (>0.1 ppm for at least one of the signals) was observed upon addition of up to 4-5 equivalents of Cu(MeCN)4BF4 were considered to show weak binding.

SMILES	IC50 (DLD-1) [nM]	IC50 (HT-1080) [nM]	IC50 (HCC 1569) [nM]	IC50 (COV434) [nM]	IC50 (NCI-H1573) [nM]	IC50 (SW948) [nM]	IC50 (Caki-1) [nM]	IC50 (H1299) [nM]	IC50 (MOLM-13) [nM]	IC50 (HuH7) [nM]	IC50 (A549) [nM]	IC50 (LnCap) [nM]	IC50 (BT-20) [nM]	IC50 (SW-1783) [nM]	IC50 (MDA-MB-468) [nM]	IC50 (K562) [nM]	IC50 (BEN) [nM]	IC50 (A172) [nM]	IC50 (HeLa) [nM]	IC50 (EFO-27) [nM]	also measured
CCCOc1c2cccc1Cc1cccc(c1OCc1nccn1C)Cc1cccc(c1OCCC)Cc1cccc(c1OCc1nccn1C)C2 [(2)]	1080	1900	2960	732	2210	2150	3240	1300	1710	543	1040	1190	1270	3380	741	1890	3680	1210	1700	1520	IC50 (Non-malignant MSC cells): 1010 nM; IC50 (HCT-15): 2020 nM; IC50 (JIMT-1): 2700 nM; IC50 (H460): 727 nM; Cu^+ binding [1]: Strong binding (means an affinity constant (Ka) equal or greater than 10^5 M^−1)
CC(C)C[C@H](NC(=O)[C@H](Cc1ccccc1)NC(=O)c1cnccn1)B(O)O [bortezomib, reference compound]	6.83	13.8	5.15	9.24	16.7	8.88	5.37	8.42	3.91	4.3	13.7	14.1	29.5	8.6	4.2	14.6	53.1	4.77	18.7	13.2	IC50 (HCT-15): 9.25 nM; IC50 (JIMT-1): 8.57 nM; IC50 (H460): 28.8 nM
